Assay results taken from ChEMBL document CHEMBL1201862, “PubChem BioAssay data set” (2004).
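Growth conditions: 96-well plates. Treatment: test compound, 48 hours, 5 concentrations. Analysis: linear interpolation between bracketing concentrations; unreached endpoints set to highest concentration. Abbreviation: GI50, concentration required for 50% inhibition of growth.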 The source made the active and inactive calls. Cut-off read from the data, not from the text of the source: active = GI50 up to about 1.1 µM and inactive = higher.

What was measured:
Assay in all cases: NCI-60 cell line screen, 48 h
EKVX = test system: EKVX
COLO 205 = test system: COLO 205
CAKI-1 = test system: CAKI-1
SNB-75 = test system: SNB-75
SF-295 = test system: SF-295
MCF7 = test system: MCF7
KM12 = test system: KM12
OVCAR-3 = test system: OVCAR-3
HOP-62 = test system: HOP-62
HOP-92 = test system: HOP-92
SK-OV-3 = test system: SK-OV-3
NCI-H522 = test system: NCI-H522
OVCAR-8 = test system: OVCAR-8
RPMI-8226 = test system: RPMI-8226
NCI-H460 = test system: NCI-H460
NCI/ADR-RES = test system: NCI/ADR-RES
A549 = test system: A549
IGROV-1 = test system: IGROV-1
786-0 = test system: 786-0
ACHN = test system: ACHN

Measured: GI50

Nc1nc(=O)c2c([nH]1)NCC(CNc1ccc(C(=O)N[C@@H](CCC(=O)O)C(=O)O)cc1)N2C=O (some centres not stated) [LEUCOVORIN CALCIUM]
inactive: EKVX > 125 µM | COLO 205 > 125 µM | CAKI-1 102 µM | SNB-75 > 125 µM | SF-295 > 125 µM | MCF7 > 125 µM | KM12 > 125 µM | OVCAR-3 > 125 µM | HOP-62 > 125 µM | HOP-92 > 125 µM | SK-OV-3 > 125 µM | NCI-H522 > 125 µM | OVCAR-8 121 µM | RPMI-8226 > 125 µM | NCI-H460 > 125 µM | NCI/ADR-RES > 125 µM | A549 > 125 µM | IGROV-1 > 125 µM

COC(=O)C(=O)c1c2ccccc2n2ccc3c4ccccc4[nH]c3c12
active: EKVX 0.406 µM
inactive: COLO 205 > 10 µM | CAKI-1 > 10 µM | SNB-75 > 10 µM | 786-0 > 10 µM | SF-295 > 10 µM | MCF7 > 10 µM | KM12 > 10 µM | OVCAR-3 > 10 µM | HOP-62 > 10 µM | HOP-92 > 10 µM | SK-OV-3 > 10 µM | NCI-H522 > 10 µM | OVCAR-8 > 10 µM | RPMI-8226 > 10 µM | ACHN > 10 µM | NCI-H460 > 10 µM | NCI/ADR-RES > 10 µM | A549 > 10 µM | IGROV-1 > 10 µM

C=C1C(=O)O[C@@H]2[C@H](O)[C@@H](C)[C@@H]3C=CC(=O)[C@@]3(C)[C@H](OC(=O)C=C(C)C)[C@H]12
inactive: EKVX 1.74 µM | SF-295 2.8 µM | KM12 1.91 µM | HOP-62 4.35 µM | SK-OV-3 3.57 µM | NCI-H460 2.11 µM | A549 2.94 µM | IGROV-1 1.96 µM
active: COLO 205 0.49 µM | CAKI-1 0.536 µM | SNB-75 1.04 µM | MCF7 0.56 µM | OVCAR-3 0.895 µM | HOP-92 0.944 µM | NCI-H522 0.179 µM | OVCAR-8 0.421 µM | RPMI-8226 0.294 µM | NCI/ADR-RES 0.536 µM

NC(CCCCO)C(=O)O (configuration not stated)
inactive: EKVX > 100 µM | COLO 205 > 100 µM | CAKI-1 > 100 µM | SNB-75 > 100 µM | SF-295 > 100 µM | MCF7 > 100 µM | KM12 > 100 µM | OVCAR-3 > 100 µM | HOP-62 > 100 µM | HOP-92 > 100 µM | SK-OV-3 > 100 µM | NCI-H522 > 100 µM | OVCAR-8 > 100 µM | RPMI-8226 > 100 µM | ACHN > 100 µM | NCI-H460 > 100 µM | NCI/ADR-RES > 100 µM | A549 > 100 µM | IGROV-1 > 100 µM

CCCCCCCCCCCCCCCCCCOP(=O)([O-])OCC[N+](C)(C)C [OCTADECYLPHOSPHONOCHOLINE]
active: COLO 205 0.146 µM | CAKI-1 0.321 µM | SNB-75 0.836 µM | SF-295 0.736 µM | MCF7 0.382 µM | KM12 0.273 µM | OVCAR-3 0.877 µM | HOP-62 0.301 µM | HOP-92 0.33 µM | NCI-H522 0.419 µM | OVCAR-8 1.02 µM | RPMI-8226 0.276 µM | ACHN < 0.0488 µM | NCI-H460 0.41 µM | IGROV-1 0.614 µM
inactive: EKVX 2.14 µM | SK-OV-3 5.69 µM | NCI/ADR-RES 1.32 µM | A549 1.35 µM

COC(=O)CCC(=O)c1ccc2c(c1)CCC2
inactive: EKVX > 100 µM | CAKI-1 > 100 µM | SNB-75 > 100 µM | 786-0 > 100 µM | SF-295 > 100 µM | MCF7 > 100 µM | OVCAR-3 > 100 µM | HOP-62 > 100 µM | HOP-92 > 100 µM | SK-OV-3 > 100 µM | NCI-H522 > 100 µM | OVCAR-8 > 100 µM | RPMI-8226 > 100 µM | ACHN > 100 µM | NCI-H460 > 100 µM | NCI/ADR-RES > 100 µM | A549 > 100 µM | IGROV-1 > 100 µM

ClCCCN1CCN(CCCl)CC1
inactive: EKVX 352 µM | COLO 205 161 µM | CAKI-1 15.2 µM | SNB-75 119 µM | 786-0 49.7 µM | SF-295 34.3 µM | MCF7 65.5 µM | KM12 552 µM | OVCAR-3 167 µM | HOP-62 24.1 µM | HOP-92 105 µM | SK-OV-3 56.2 µM | NCI-H522 121 µM | OVCAR-8 120 µM | RPMI-8226 205 µM | ACHN 11.1 µM | NCI-H460 6.24 µM | NCI/ADR-RES 127 µM | A549 110 µM | IGROV-1 120 µM

N#CCCN(CCC#N)c1ccc(C(=N/c2ccc(Cl)cc2)/N=N/c2ccc(Cl)cc2)cc1
inactive: EKVX 18.7 µM | COLO 205 16.2 µM | CAKI-1 16.4 µM | SNB-75 20 µM | 786-0 18.3 µM | SF-295 10.7 µM | MCF7 10.1 µM | KM12 13.6 µM | OVCAR-3 16.7 µM | HOP-62 21.7 µM | HOP-92 19.2 µM | SK-OV-3 33 µM | NCI-H522 17 µM | OVCAR-8 17.6 µM | RPMI-8226 47.2 µM | ACHN 18.2 µM | NCI-H460 13.4 µM | NCI/ADR-RES 17.2 µM | A549 16.9 µM | IGROV-1 14.6 µM

O=C(O)c1ccccc1CN1CCCC(C(=O)O)C1 (configuration not stated)
inactive: EKVX > 100 µM | COLO 205 > 100 µM | CAKI-1 > 100 µM | SNB-75 > 100 µM | 786-0 > 100 µM | SF-295 > 100 µM | MCF7 > 100 µM | KM12 > 100 µM | OVCAR-3 > 100 µM | HOP-62 > 100 µM | HOP-92 > 100 µM | SK-OV-3 > 100 µM | NCI-H522 > 100 µM | OVCAR-8 > 100 µM | RPMI-8226 > 100 µM | ACHN > 100 µM | NCI-H460 > 100 µM | NCI/ADR-RES > 100 µM | A549 > 100 µM | IGROV-1 > 100 µM
